Test results reported in the supplement of paper PMC10307832.

compound: C1CC(C2=C(C1)C3=C(N2)C=CC(=C3)Cl)C(=O)N [Selisistat] + Cc1cc(Nc2cc(N3CCN(C)CC3)nc(Sc3ccc(NC(=O)C4CC4)cc3)n2)n[nH]1 [Tozasertib] (partner 0.1 µM); assay: relative viability (nuclei count vs DMSO), 5 days (fraction); higher = more cells survive; details: first compound 40 µM
Procedure, shortened: (§1)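 One day after seeding in 1536-well plates, lung cancer cell lines were dosed by pin tool. Dosing was either single-drug or a fixed anchor-drug dose plus five library-drug doses (not always all listed) in √10 steps. After 5 days, nuclei were stained in one fix-and-stain step and counted on 4× images, and relative viability is the nuclei count of treated wells over that of vehicle wells, given as the median of duplicate plates.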

| Cell Line | relative viability |
| --- | --- |
| NCI-H727 | 0.69 |
| NCI-H1650 | 0.334 |
| NCI-H1993 | 0.539 |
| SW 1573 | 0.184 |
| NCI-H838 | 0.249 |
| LCLC-103H | 0.565 |
| NCI-H520 | 0.451 |
| NCI-H2126 | 0.867 |
| EMC-BAC-2 | 0.257 |
| NCI-H2085 | 0.806 |
| HCC-366 | 0.0529 |
| NCI-H1666 | 0.541 |
| NCI-H596 | 0.914 |
| LK-2 | 0.18 |
| NCI-H2087 | 0.272 |
| NCI-H2342 | 0.57 |

| Cell Line | relative viability |
| --- | --- |
| SK-MES-1 | 0.948 |
| H3255 | 0.717 |
| COR-L23 | 0.183 |
| COR-L 105 | 0.336 |
| LOU-NH91 | 0.673 |
| ChaGo-K-1 | 0.245 |
| NCI-H2170 | 0.8 |
| NCI-H2405 | 0.722 |
| HCC-44 | 0.931 |
| SW 900 | 0.559 |
| NCI-H1648 | 0.64 |
| NCI-H2009 | 0.744 |
| NCI-H661 | 0.352 |
| SK-LU-1 | 0.314 |
| NCI-H2228 | 0.217 |
| NCI-H2023 | 0.307 |

compound: C1CC(C2=C(C1)C3=C(N2)C=CC(=C3)Cl)C(=O)N [Selisistat] + NC(=O)Nc1cc(-c2cccc(F)c2)sc1C(=O)N[C@H]1CCCNC1 [AZD7762] (partner 0.2 µM); assay: as above; details: first compound 0.4 µM
Procedure, shortened: as §1

| Cell Line | relative viability |
| --- | --- |
| NCI-H522 | 0.63 |
| NCI-H727 | 0.675 |
| NCI-H1703 | 0.116 |
| NCI-H1993 | 0.793 |
| NCI-H838 | 0.933 |
| LCLC-103H | 0.807 |
| NCI-H2126 | 1.04 |
| EMC-BAC-2 | 1.08 |
| NCI-H2085 | 1.06 |
| HCC-366 | 0.315 |
| NCI-H1666 | 0.841 |
| NCI-H596 | 1.14 |
| LK-2 | 0.434 |
| NCI-H2087 | 1.31 |
| NCI-H2342 | 0.494 |
| H3255 | 0.898 |
| LOU-NH91 | 0.751 |
| ChaGo-K-1 | 0.787 |
| NCI-H2170 | 0.868 |
| NCI-H2405 | 0.718 |
| HCC-44 | 1 |
| SW 900 | 0.533 |
| NCI-H1648 | 0.736 |
| NCI-H1792 | 0.654 |

same assay, conditions: first compound 1.265 µM

| Cell Line | relative viability |
| --- | --- |
| NCI-H522 | 0.672 |
| NCI-H727 | 0.563 |
| NCI-H1703 | 0.114 |
| NCI-H1993 | 0.791 |
| NCI-H838 | 0.91 |
| LCLC-103H | 0.744 |
| NCI-H2126 | 1.04 |
| EMC-BAC-2 | 1.11 |
| NCI-H2085 | 1.02 |
| HCC-366 | 0.225 |
| NCI-H1666 | 0.83 |
| NCI-H596 | 1.01 |
| LK-2 | 0.265 |
| NCI-H2087 | 1.14 |
| NCI-H2342 | 0.483 |
| H3255 | 0.861 |
| LOU-NH91 | 0.755 |
| ChaGo-K-1 | 0.828 |
| NCI-H2170 | 0.939 |
| NCI-H2405 | 0.732 |
| HCC-44 | 1.04 |
| SW 900 | 0.529 |
| NCI-H1648 | 0.64 |
| NCI-H1792 | 0.577 |

same assay, conditions: first compound 4 µM

| Cell Line | relative viability |
| --- | --- |
| NCI-H522 | 0.622 |
| NCI-H727 | 0.369 |
| NCI-H838 | 0.958 |
| LCLC-103H | 0.853 |
| NCI-H2126 | 0.992 |
| EMC-BAC-2 | 1.07 |
| NCI-H2085 | 0.67 |
| HCC-366 | 0.257 |
| NCI-H1666 | 0.806 |
| NCI-H596 | 0.887 |
| LK-2 | 0.323 |
| NCI-H2342 | 0.41 |
| H3255 | 0.733 |
| LOU-NH91 | 0.775 |
| ChaGo-K-1 | 0.883 |
| NCI-H2170 | 0.82 |
| HCC-44 | 1.1 |
| SW 900 | 0.681 |

same assay, conditions: first compound 12.65 µM

| Cell Line | relative viability |
| --- | --- |
| NCI-H522 | 0.9 |
| NCI-H727 | 0.615 |
| NCI-H1703 | 0.139 |
| NCI-H1993 | 0.954 |
| NCI-H838 | 0.971 |
| LCLC-103H | 0.751 |
| NCI-H2126 | 1.03 |
| EMC-BAC-2 | 0.661 |
| NCI-H2085 | 0.992 |
| HCC-366 | 0.186 |
| NCI-H1666 | 0.895 |
| NCI-H596 | 1.05 |
| LK-2 | 0.296 |
| NCI-H2087 | 1.19 |
| NCI-H2342 | 0.611 |
| H3255 | 0.895 |
| LOU-NH91 | 0.723 |
| ChaGo-K-1 | 0.838 |
| NCI-H2170 | 0.854 |
| NCI-H2405 | 0.725 |
| HCC-44 | 1.02 |
| SW 900 | 0.601 |
| NCI-H1648 | 0.731 |
| NCI-H1792 | 0.512 |

same assay, conditions: first compound 40 µM

| Cell Line | relative viability |
| --- | --- |
| NCI-H522 | 1.01 |
| NCI-H727 | 0.527 |
| NCI-H1703 | 0.136 |
| NCI-H1993 | 0.816 |
| NCI-H838 | 1.03 |
| LCLC-103H | 0.749 |
| NCI-H2126 | 1.03 |
| EMC-BAC-2 | 0.598 |
| NCI-H2085 | 0.983 |
| HCC-366 | 0.166 |
| NCI-H1666 | 0.96 |
| NCI-H596 | 1.06 |
| LK-2 | 0.434 |
| NCI-H2087 | 1.25 |
| NCI-H2342 | 0.505 |
| H3255 | 0.806 |
| LOU-NH91 | 0.841 |
| ChaGo-K-1 | 0.8 |
| NCI-H2170 | 0.911 |
| NCI-H2405 | 0.678 |
| HCC-44 | 1.15 |
| SW 900 | 0.584 |
| NCI-H1648 | 0.768 |
| NCI-H1792 | 0.713 |

compound: c1ccc2c(CCNc3ccc(Nc4ccncc4)cc3)c[nH]c2c1 [Serdemetan] + Cc1nc(NC(=O)N2CCC[C@H]2C(N)=O)sc1-c1ccnc(C(C)(C)C(F)(F)F)c1 [Alpelisib] (partner 2 µM); assay: as above; details: first compound 0.04 µM
Procedure, shortened: as §1

| Cell Line | relative viability |
| --- | --- |
| NCI-H727 | 0.597 |
| EBC-1 | 0.739 |
| NCI-H1703 | 0.389 |
| NCI-H1993 | 0.715 |
| SW 1573 | 0.7 |
| NCI-H838 | 0.994 |
| LCLC-103H | 0.944 |
| NCI-H520 | 0.729 |
| NCI-H2126 | 0.721 |
| EMC-BAC-2 | 0.727 |
| NCI-H2085 | 0.952 |
| Calu-6 | 0.934 |
| HCC-366 | 0.403 |
